In patent US10604489B2, “Compounds for the treatment of pain” (priority 2018, dated 2020):
Structures can show the parent of a compound that is named as a salt.

Assays:
μ-receptor = μ-receptor (Homo sapiens (Human), UniProt P35372); assay: Receptor binding, competitive displacement of [3H]DAMGO; conditions: 0.25 nM [3H]DAMGO, CHO cell membrane protein, 60 min at 25° C.
Protocol: The Ki (binding affinity) for μ-receptor was determined with a previously described method using a competitive displacement assay (Neumeyer et al., J. Med. Chem., v. 46, p. 5162-5170, 2003). Membrane protein from CHO (Chinese Hamster Ovarian) cells that stably expressed one type of the cloned human opioid receptor were incubated with 12 different concentrations of the compound in the presence of 0.25 nM [3H]DAMGO, 0.2 nM [3H]naltrindole or 1 nM [3H]U69,593 in a final volume of 1 mL of 50 mM Tris-HCl, pH 7.5 at 25° C. Incubation times of 60 min were used for [3H]DAMGO and [3H]U69,593. Because of a slower association of [3H]naltrindole with the receptor, a 3 h incubation was used with this radioligand. Samples incubated with [3H]naltrindole also contained 10 mM MgCl2 and 0.5 mM phenylmethylsulfonyl fluoride. Nonspecific binding was measured by inclusion of 10 μM naloxone. The binding was terminated by filtering the samples through Schleicher & Schuell No. 32 glass fiber filters using a Brandel 48-well cell harvester. The filters were subsequently washed three times with 3 mL of cold 50 mM Tris-HCl, pH 7.5, and were counted in 2 mL Ecoscint A scintillation fluid. For [3H]naltrindole and [3H]U69,593 binding, the filters were soaked in 0.1% polyethylenimine for at least 60 min before use. IC50 values will be calculated by least squares fit to a logarithm-probit analysis. Ki values of unlabelled compounds were calculated from the equation Ki=(IC50)/1+S where S=(concentration of radioligand)/(Kd of radioligand) (Cheng and Prusoff, Biochemical Pharmacology, v. 22, p. 3099-3108, 1973).

human μ opioid receptor = human μ opioid receptor (Homo sapiens (Human), UniProt P35372); assay: Functional activity ([35S]GTPγS binding); format: biochemical; conditions: [35S]GTPγS 0.080 nM, CHO cell membranes, 60 min at 30° C., filtration
Protocol: The [^35S]GTPγS assay measures the functional properties of a compound by quantifying the level of G-protein activation following agonist binding in studies using stably transfected cells, and is considered to be a measure of the efficacy of a compound. Membranes from CHO (Chinese Hamster Ovary) cells that stably expressed one type of the cloned human opioid receptor human were used in the experiments. In a final volume of 0.5 mL, 12 different concentrations of each test compound were incubated with 7.5 μg of CHO cell membranes that stably expressed the human p opioid receptor. The assay buffer consisted of 50 mM Tris-HCl, pH 7.4, 3 mM MgCl2, 0.2 mM EGTA, 3 μM GDP, and 100 mM NaCl. The final concentration of [35S]GTPγS was 0.080 nM. Nonspecific binding was measured by inclusion of 10 μM GTPγS. Binding was initiated by the addition of the membranes. After an incubation of 60 min at 30° C., the samples were filtered through Schleicher & Schuell No. 32 glass fiber filters. The filters were washed three times with cold 50 mM Tris-HCl, pH 7.5, and were counted in 2 mL of Ecoscint scintillation fluid.

COC1(c2cccc(C(N)=O)c2)C2CCCC1CN(C1CC3CCC(C1)O3)C2 (single isomer, unassigned) [Compound 14, hydrochloride] was tested, and the Ki (μ-receptor) was 1 to 5 nM and the EC50 (human μ opioid receptor) was > 75 nM.
With COC[C@H](C)N1CC2CCCC(C1)C2(OC)c1ccnc(C(N)=O)c1.Cl (single isomer, unassigned) [Compound 61, hydrochloride] the Ki (μ-receptor) was 1 to 5 nM and the EC50 (human μ opioid receptor) was 10 to 75 nM.
In the case of COC[C@@H](C)N1CC2CCCC(C1)C2(OC)c1ccnc(C(N)=O)c1 (single isomer, unassigned) [Compound 62, hydrochloride], the Ki (μ-receptor) is reported as > 5 nM and the EC50 (human μ opioid receptor) is reported as > 75 nM.
For CCC[C@H](C)N1CC2CCCC(C1)C2(OC)c1ccnc(C(N)=O)c1 (single isomer, unassigned) [Compound 134, hydrochloride], the Ki (μ-receptor) was < 1 nM and the EC50 (human μ opioid receptor) was 10 to 75 nM.
For COC1(c2ccnc(C(N)=O)c2)C2CCCC1CN(C[C@@H]1CCCO1)C2 (single isomer, unassigned) [Compound 135, hydrochloride], the Ki (μ-receptor) was 1 to 5 nM and the EC50 (human μ opioid receptor) was 10 to 75 nM.
With COC1(c2ccnc(C(N)=O)c2)C2CCCC1CN(C[C@H]1CCCO1)C2.Cl (single isomer, unassigned) [Compound 136, hydrochloride] the Ki (μ-receptor) was > 5 nM and the EC50 (human μ opioid receptor) was 10 to 75 nM.
For CCC[C@@H](C)N1CC2CCCC(C1)C2(OC)c1ccnc(C(N)=O)c1 (single isomer, unassigned) [Compound 137, hydrochloride], the Ki (μ-receptor) was 1 to 5 nM and the EC50 (human μ opioid receptor) was 10 to 75 nM.
COC1(c2cccc(C(N)=O)c2)C2CCCC1CN([C@H]1CCCOC1)C2.Cl (single isomer, unassigned) [Compound 140, hydrochloride] was tested, and the Ki (μ-receptor) was < 1 nM and the EC50 (human μ opioid receptor) was 10 to 75 nM.
In the case of COC1(c2cccc(C(N)=O)c2)C2CCCC1CN([C@@H]1CCCOC1)C2 (single isomer, unassigned) [Compound 141, hydrochloride], the Ki (μ-receptor) is reported as < 1 nM and the EC50 (human μ opioid receptor) is reported as 10 to 75 nM.
For COC1(c2cccc(C(N)=O)c2)C2CCCC1CN(C[C@@H]1CCOC1)C2.Cl (single isomer, unassigned) [Compound 143, hydrochloride], the Ki (μ-receptor) was < 1 nM and the EC50 (human μ opioid receptor) was < 10 nM.
For COC1(c2ccnc(C(N)=O)c2)C2CCCC1CN([C@H]1CC[C@@H]1C)C2 (single isomer, unassigned) [Compound 144, hydrochloride], the Ki (μ-receptor) was < 1 nM and the EC50 (human μ opioid receptor) was 10 to 75 nM.
With COC1(c2cccc(C(N)=O)c2)C2CCCC1CN(C[C@H]1CCOC1)C2 (single isomer, unassigned) [Compound 148, hydrochloride] the Ki (μ-receptor) was < 1 nM and the EC50 (human μ opioid receptor) was < 10 nM.
COC1(c2ccnc(C(N)=O)c2)C2CCCC1CN([C@H]1CC[C@@H]1C)C2 (stereo in doubt) [Compound 147, 4-((1R,5S,9R)-9-methoxy-3-((1R,2R)-2-methylcyclobutyl)-3-azabicyclo[3.3.1]nonan-9-yl)picolinamide hydrochloride] was tested, and the Ki (μ-receptor) was 1 to 5 nM and the EC50 (human μ opioid receptor) was 10 to 75 nM.
For COC1(c2ccnc(C(N)=O)c2)C2CCCC1CN(CCS(C)(=O)=O)C2 [Compound 8, 4-((1R,5S,9r)-9-methoxy-3-(2-(methylsufonyl)ethyl)-3-azabicyclo[3.3.1]nonan-9-yl)picolinamide hydrochloride], the Ki (μ-receptor) was > 5 nM.
COC1(c2ccnc(C(N)=O)c2)C2CCCC1CN(CC1(F)CCOCC1)C2 [Compound 15, 4-((1R,5S,9r)-34(4-fluorotetrahydro-2H-pyran-4-yl)methyl)-9-methoxy-3-azabicyclo[3.3.1]nonan-9-yl)picolinamide hydrochloride] was tested, and the Ki (μ-receptor) was > 5 nM.
In the case of COC1(c2cccc(C(N)=O)c2)C2CCCC1CN(C(C)C)C2 [Compound 25, 3-((1R,5S,9r)-3-isopropyl-9-methoxy-3-azabicyclo[3.3.1]nonan-9-yl)benzamide hydrochloride], the Ki (μ-receptor) is reported as < 1 nM.
For COC1(c2cncc(C(N)=O)c2)C2CCCC1CN(CC1CC1)C2 [Compound 28, 5-((1R,5S,9r)-3-(cyclopropylmethyl)-9-methoxy-3-azabicyclo[3.3.1]nonan-9-yl)nicotinamide hydrochloride], the Ki (μ-receptor) was > 5 nM.
For COC1(c2ccc(C(N)=O)cc2)C2CCCC1CN(CC1CC1)C2 [Compound 31, 4-((1R,5S,9r)-3-(cyclopropylmethyl)-9-methoxy-3-azabicyclo[3.3.1]nonan-9-yl)benzamide hydrochloride], the Ki (μ-receptor) was > 5 nM.
With COC1(c2cccc(C(N)=O)c2)C2CCCC1CN(CC(F)(F)F)C2 [Compound 32, 3-((1R,5S,9r)-9-methoxy-3-(2,2,2-trifluoroethyl)-3-azabicyclo[3.3.1]nonan-9-yl)benzamide hydrochloride] the Ki (μ-receptor) was > 5 nM.
For COC1(c2cccc(C(N)=O)n2)C2CCCC1CN(C)C2 [Compound 33, 6-((1R,5S,9r)-9-methoxy-3-methyl-3-azabicyclo[3.3.1]nonan-9-yl)picolinamide hydrochloride], the Ki (μ-receptor) was > 5 nM.
In the case of COC1(c2ccc(F)c(C(N)=O)c2)C2CCCC1CN(C)C2 [Compound 41, 2-fluoro-5-((1R,5S,9r)-9-methoxy-3-methyl-3-azabicyclo[3.3.1]nonan-9-yl)benzamide hydrochloride], the Ki (μ-receptor) is reported as > 5 nM.
For COC1(c2cc(C(N)=O)ccn2)C2CCCC1CN(C)C2 [Compound 44, 2-((1R,5S,9r)-9-methoxy-3-methyl-3-azabicyclo[3.3.1]nonan-9-yl)isonicotinamide hydrochloride], the Ki (μ-receptor) was 1 to 5 nM.
For COC1(c2cc(O)cc(C(N)=O)c2)C2CCCC1CN(C)C2 [Compound 52, 3-hydroxy-5-((1R,5S,9r)-9-methoxy-3-methyl-3-azabicyclo[3.3.1]nonan-9-yl)benzamide hydrochloride], the Ki (μ-receptor) was > 5 nM.
In the case of COC1(c2cc(C(N)=O)cs2)C2CCCC1CN(CC1CC1)C2 [Compound 59, 5-((1R,5S,9r)-3-(cyclopropylmethyl)-9-methoxy-3-azabicyclo[3.3.1]nonan-9-yl)thiophene-3-carboxamide hydrochloride], the Ki (μ-receptor) is reported as 1 to 5 nM.
For COC1(c2ccnc(C(N)=O)c2)C2CCCC1CN(CCN1CCOC1=O)C2 [Compound 80, 4-((1R,5S,9r)-9-methoxy-3-(2-(2-oxooxazolidin-3-yl)ethyl)-3-azabicyclo[3.3.1]nonan-9-yl)picolinamide hydrochloride], the Ki (μ-receptor) was > 5 nM.
With COC1(c2ccnc(C(N)=O)c2)C2CCCC1CN(C1CN(C(C)=O)C1)C2 [Compound 84, 4-((1R,5S,9r)-3-(1-acetylazetidin-3-yl)-9-methoxy-3-azabicyclo[3.3.1]nonan-9-yl)picolinamide hydrochloride] the Ki (μ-receptor) was > 5 nM.
For COC1(c2ccnc(C(N)=O)c2)C2CCCC1CN(CC(C)(C)C)C2 [Compound 105, 4-((1R,5S,9r)-9-methoxy-3-neopentyl-3-azabicyclo[3.3.1]nonan-9-yl)picolinamide hydrochloride], the Ki (μ-receptor) was > 5 nM.
COC1(c2ccnc(C(N)=O)c2)C2CCCC1CN([C@@H]1CC[C@@H]1c1ccccc1)C2 (stereo partly drawn) [Compound 110, 4-((1R,5S,9R)-9-methoxy-3-((1R,2R)-2-phenylcyclobutyl)-3-azabicyclo[3.3.1]nonan-9-yl)picolinamide hydrochloride] was tested, and the Ki (μ-receptor) was > 5 nM.
For COC1(c2ccnc(C(N)=O)c2)C2CCCC1CN([C@H]1CC[C@H]1c1ccccc1)C2 (stereo partly drawn) [Compound 116, 4-((1R,5S,9s)-9-methoxy-3-((1S,2S)-2-phenylcyclobutyl)-3-azabicyclo[3.3.1]nonan-9-yl)picolinamide (S)-2-hydroxysuccinate], the Ki (μ-receptor) was > 5 nM.
In the case of COC1(c2ccnc(C(N)=O)c2)C2CCCC1CN(Cc1cc3ccccc3[nH]1)C2 [Compound 119, 4-((1R,5S,9r)-3-((1H-indol-2-yl)methyl)-9-methoxy-3-azabicyclo[3.3.1]nonan-9-yl)picolinamide (S)-2-hydroxysuccinate], the EC50 (human μ opioid receptor) is reported as < 10 nM.
COC1(c2ccnc(C(N)=O)c2)C2CCCC1CN(Cc1cccc(=O)[nH]1)C2 [Compound 120, 4-((1R,5S,9r)-34(6-hydroxypyridin-2-yl)methyl)-9-methoxy-3-azabicyclo[3.3.1]nonan-9-yl)picolinamide hydrochloride] was tested, and the Ki (μ-receptor) was > 5 nM.
With COC1(c2ccnc(C(N)=O)c2)C2CCCC1CN(Cc1cnnn1C)C2 [Compound 125, 4-((1R,5S,9r)-9-methoxy-3-((1-methyl-1H-1,2,3-triazol-5-yl)methyl)-3-azabicyclo[3.3.1]nonan-9-yl)picolinamide hydrochloride] the Ki (μ-receptor) was > 5 nM.
